Data from patent US20240368135A1 (VERTEX PHARMACEUTICALS INCORPORATED, priority 2021, published 2024).
Like-named read-outs stand apart in the source and are kept apart here.

Biological target: human NaV 1.8 (Homo sapiens, UniProt Q9Y5Y9)
Assay: E-VIPR assay detecting and measuring NaV inhibition properties
Format: cell-based
Conditions: HEK cells expressing truncated human NaV 1.8
Summary of the method: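 HEK cells expressing truncated, fully active human NaV1.8, with KIR2.1 BacMam co-transduction, were loaded with CC2-DMPE/DiSBAC6(3) voltage-sensing dyes for 20 min at room temperature. Compounds were tested in 11-point 3-fold dilutions (300 nM top final), optionally with 25% human serum, under electrical stimulation with FRET read-out.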

[1] = in the presence of human serum (compound numbers followed by *), read-out: IC50 in the E-VIPR Assay, performed in the presence of human serum
[2] = no human serum, read-out: IC50 in the E-VIPR Assay

Chain of human NaV 1.8 (Q9Y5Y9 126-399 limits assumed): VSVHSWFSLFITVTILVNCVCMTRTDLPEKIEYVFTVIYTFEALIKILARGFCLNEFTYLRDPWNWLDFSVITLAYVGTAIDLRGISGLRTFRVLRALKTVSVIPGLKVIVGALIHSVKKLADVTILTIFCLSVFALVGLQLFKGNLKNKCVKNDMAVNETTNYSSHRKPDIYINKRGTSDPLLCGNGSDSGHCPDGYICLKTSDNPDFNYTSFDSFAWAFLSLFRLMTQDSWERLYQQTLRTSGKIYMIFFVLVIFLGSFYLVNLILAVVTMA
Chain of human NaV 1.8 (Q9Y5Y9 660-890 limits assumed): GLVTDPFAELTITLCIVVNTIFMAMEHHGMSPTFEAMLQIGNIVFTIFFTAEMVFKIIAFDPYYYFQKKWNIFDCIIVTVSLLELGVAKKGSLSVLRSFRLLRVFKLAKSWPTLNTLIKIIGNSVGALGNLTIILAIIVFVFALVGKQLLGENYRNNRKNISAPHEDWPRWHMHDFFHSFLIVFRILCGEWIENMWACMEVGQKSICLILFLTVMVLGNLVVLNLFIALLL
Chain of human NaV 1.8 (Q9Y5Y9 1148-1722 limits assumed): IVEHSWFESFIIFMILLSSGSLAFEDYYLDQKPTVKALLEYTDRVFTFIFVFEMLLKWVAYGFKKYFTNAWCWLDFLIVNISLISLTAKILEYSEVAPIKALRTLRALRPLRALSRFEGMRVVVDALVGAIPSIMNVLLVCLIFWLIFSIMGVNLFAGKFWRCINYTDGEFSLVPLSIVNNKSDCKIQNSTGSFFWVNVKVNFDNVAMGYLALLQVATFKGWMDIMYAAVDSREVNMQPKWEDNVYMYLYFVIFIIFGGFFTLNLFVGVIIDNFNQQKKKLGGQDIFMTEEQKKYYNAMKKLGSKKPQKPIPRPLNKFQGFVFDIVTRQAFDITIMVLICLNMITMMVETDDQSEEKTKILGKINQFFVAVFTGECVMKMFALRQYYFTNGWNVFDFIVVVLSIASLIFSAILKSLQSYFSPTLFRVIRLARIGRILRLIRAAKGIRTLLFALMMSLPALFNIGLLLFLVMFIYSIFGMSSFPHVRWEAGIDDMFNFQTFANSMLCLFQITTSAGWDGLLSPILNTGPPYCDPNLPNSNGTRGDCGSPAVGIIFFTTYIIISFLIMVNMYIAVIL

SMILES | IC50 [1] | IC50 [2]
COc1c([C@@H]2[C@@H](C(=O)Nc3ccnc([S+](C)[O-])c3)O[C@](C)(C(F)(F)F)[C@@H]2C)ccc(F)c1F (single isomer, unassigned) [Compound 6] | ≥ 1000 nM | 
COc1c([C@H]2[C@H](C(=O)NCc3ccc4ncccc4c3)O[C@@](C)(C(F)(F)F)[C@H]2C)ccc(F)c1F [Compound 294, (2R,3S,4S,5R)-3-(3,4-difluoro-2-methoxyphenyl)-4,5-dimethyl-N-(quinolin-6-ylmethyl)-5-(trifluoromethyl)tetrahydrofuran-2-carboxamide] |  | ≥ 1000 nM
COc1c([C@H]2[C@H](C(=O)Nc3ccc(CC4CCOCC4)nc3)O[C@@](C)(C(F)(F)F)[C@H]2C)ccc(F)c1F [Compound 404, (2R,3S,4S,5R)-3-(3,4-difluoro-2-methoxyphenyl)-4,5-dimethyl-N-(6-((tetrahydro-2H-pyran-4-yl)methyl)pyridin-3-yl)-5-(trifluoromethyl)-tetrahydrofuran-2-carboxamide] |  | 100 to 1000 nM
COc1c([C@H]2[C@H](C(=O)N3Cc4ccncc4C3)O[C@@](C)(C(F)(F)F)[C@H]2C)ccc(F)c1F [Compound 323, ((2R,3S,4S,5R)-3-(3,4-difluoro-2-methoxyphenyl)-4,5-dimethyl-5-(trifluoromethyl)-tetrahydrofuran-2-yl)(1,3-dihydro-2H-pyrrolo[3,4-c]pyridin-2-yl)methanone] |  | ≥ 1000 nM
COc1c(C2C(C(=O)Nc3ccnc(C(O)C(C)O)c3)OC(C)(C(F)(F)F)C2C)ccc(F)c1C (single isomer, unassigned) [Compound 149] | 100 to 1000 nM | 
Cc1cncc(NC(=O)C2OC(C)(C(F)(F)F)C(C)C2c2ccc(F)c(F)c2OC2CC(O)C2)c1 [Compound 665, (2R,3S,4S,5R)-3-(3,4-difluoro-2-((1S,3R)-3-hydroxycyclobutoxy)phenyl)-4,5-dimethyl-N-(5-methylpyridin-3-yl)-5-(trifluoromethyl)tetrahydrofuran-2-carboxamide] |  | 10 to 100 nM
COc1c([C@H]2[C@H](C(=O)Nc3cnc4c(c3)C(O)CC4)O[C@@](C)(C(F)(F)F)[C@H]2C)ccc(F)c1F (single isomer, unassigned) [Compound 434, rel-(2R*,3S*,4S*,5R*)-3-(3,4-difluoro-2-methoxyphenyl)-N-(5-hydroxy-6,7-dihydro-5H-cyclopenta[b]pyridin-3-yl)-4,5-dimethyl-5-(trifluoromethyl)tetrahydrofuran-2-carboxamide] |  | 100 to 1000 nM
COc1c(C2C(C(=O)Nc3cccnc3)OC(C)(C(F)(F)F)C2C)ccc(F)c1F (single isomer, unassigned) [Compound 29, 3-(3,4-difluoro-2-methoxy-phenyl)-4,5-dimethyl-N-(3-pyridyl)-5-(trifluoromethyl)tetrahydrofuran-2-carboxamide] |  | ≥ 1000 nM
COc1c([C@H]2[C@H](C(=O)NC3CS(=O)(=O)C3)O[C@@](C)(C(F)(F)F)[C@H]2C)ccc(F)c1F [Compound 309, (2R,3S,4S,5R)-3-(3,4-difluoro-2-methoxyphenyl)-N-(1,1-dioxidothietan-3-yl)-4,5-dimethyl-5-(trifluoromethyl)tetrahydrofuran-2-carboxamide] |  | ≥ 1000 nM
COc1c(C2C(C(=O)Nc3ccncn3)OC(C)(C(F)(F)F)C2C)ccc(F)c1F (single isomer, unassigned) [Compound 35, 3-(3,4-difluoro-2-methoxy-phenyl)-4,5-dimethyl-N-pyrimidin-4-yl-5-(trifluoromethyl)tetrahydrofuran-2-carboxamide] |  | ≥ 1000 nM
Cc1ncc(C2CCOC2)cc1NC(=O)[C@@H]1O[C@@](C)(C(F)(F)F)[C@@H](C)[C@H]1c1ccc(F)c(F)c1OCCO (stereo partly drawn) [Compound 551, (2R,3S,4S,5R)-3-(3,4-difluoro-2-(2-hydroxyethoxy)phenyl)-4,5-dimethyl-N-(2-methyl-5-(tetrahydrofuran-3-yl)pyridin-3-yl)-5-(trifluoromethyl)tetrahydrofuran-2-carboxamide] |  | ≥ 1000 nM
COc1c([C@H]2[C@H](C(=O)Nc3ccnc([S+](C)[O-])c3)O[C@@](C)(C(F)(F)F)[C@H]2C)ccc(F)c1F (single isomer, unassigned) [Compound 9] | < 10 nM | 
COc1c(C2CC(C)(C(F)(F)F)OC2C(=O)Nc2ccnc(C(O)C(C)O)c2)ccc(F)c1F (single isomer, unassigned) [Compound 696] | 10 to 100 nM | 

Next, values leading:

IC50 [1] | IC50 [2] | SMILES
 | < 10 nM | CCS(=O)(=O)c1cc(NC(=O)C2OC(C)(C(F)(F)F)C(C)C2c2ccc(F)c(F)c2OC)ccn1 (single isomer, unassigned) [Compound 51, 3-(3,4-difluoro-2-methoxy-phenyl)-N-(2-ethylsulfonyl-4-pyridyl)-4,5-dimethyl-5-(trifluoromethyl)tetrahydrofuran-2-carboxamide]
 | < 10 nM | COCCOc1c([C@H]2[C@H](C(=O)Nc3ccnc(N4C(=O)CN(C)C[C@H]4C)c3)O[C@@](C)(C(F)(F)F)[C@H]2C)ccc(F)c1F [Compound 652, (2R,3S,4S,5R)-3-[3,4-difluoro-2-(2-methoxyethoxy)phenyl]-N-[2-[(2R)-2,4-dimethyl-6-oxo-piperazin-1-yl]-4-pyridyl]-4,5-dimethyl-5-(trifluoromethyl)tetrahydrofuran-2-carboxamide]
 | < 10 nM | C[C@H]1[C@@H](c2ccc(F)c(F)c2OC(F)F)[C@H](C(=O)Nc2ccnc(C(O)CO)c2)O[C@@]1(C)C(F)(F)F (single isomer, unassigned) [Compound 82]
 | 10 to 100 nM | CCOc1c([C@@H]2C[C@](C)(C(F)(F)F)O[C@H]2C(=O)Nc2ccnc(C(O)CO)c2)ccc(F)c1F (single isomer, unassigned) [Compound 710]
 | 10 to 100 nM | C[C@H](CO)COc1c([C@H]2[C@H](C(=O)Nc3ccc(C(N)=O)nc3)O[C@@](C)(C(F)(F)F)[C@H]2C)ccc(F)c1F [Compound 614, 5-((2R,3S,4S,5R)-3-(3,4-difluoro-2-((R)-3-hydroxy-2-methylpropoxy)phenyl)-4,5-dimethyl-5-(trifluoromethyl)tetrahydrofuran-2-carboxamido)picolinamide]
 | < 10 nM | C[C@H]1[C@@H](c2ccc(F)c(F)c2OCC(C)(F)F)[C@H](C(=O)Nc2ccnc(CO)c2)O[C@@]1(C)C(F)(F)F [Compound 643, (2R,3S,4S,5R)-3-(2-(2,2-difluoropropoxy)-3,4-difluorophenyl)-N-(2-(hydroxymethyl)pyridin-4-yl)-4,5-dimethyl-5-(trifluoromethyl)tetrahydrofuran-2-carboxamide]
 | < 10 nM | COc1c([C@H]2[C@H](C(=O)Nc3ccc(S(C)(=N)=O)nc3)O[C@@](C)(C(F)(F)F)[C@H]2C)ccc(F)c1F (single isomer, unassigned) [Compound 336, rel-(2R*,3S*,4S*,5R*)-3-(3,4-difluoro-2-methoxyphenyl)-4,5-dimethyl-N-(6-(S-methylsulfonimidoyl)-pyridin-3-yl)-5-(trifluoromethyl)-tetrahydrofuran-2-carboxamide]
 | 10 to 100 nM | COc1c([C@H]2[C@H](C(=O)Nc3cnc4nncn4c3)O[C@@](C)(C(F)(F)F)[C@H]2C)ccc(F)c1F [Compound 388, (2R,3S,4S,5R)-N-([1,2,4]triazolo[4,3-a]pyrimidin-6-yl)-3-(3,4-difluoro-2-methoxyphenyl)-4,5-dimethyl-5-(trifluoromethyl)tetrahydrofuran-2-carboxamide]
 | 10 to 100 nM | COc1c([C@H]2[C@H](C(=O)Nc3ccnc(N4C[C@H]5C[C@H](N5)C4=O)c3)O[C@@](C)(C(F)(F)F)[C@H]2C)ccc(F)c1F (single isomer, unassigned) [Compound 491, rel-(2R*,3S*,4S*,5R*)-3-(3,4-difluoro-2-methoxyphenyl)-4,5-dimethyl-N-(2-((1S,5R)-2-oxo-3,6-diazabicyclo[3.1.1]heptan-3-yl)pyridin-4-yl)-5-(trifluoromethyl)tetrahydrofuran-2-carboxamide]
 | < 10 nM | COc1c([C@H]2[C@H](C(=O)Nc3cc(C(O)CN(C)C)ncc3F)O[C@@](C)(C(F)(F)F)[C@H]2C)ccc(F)c1F (single isomer, unassigned) [Compound 370, rel-(2R*,3S*,4S*,5R*)-3-(3,4-difluoro-2-methoxyphenyl)-N-(2-(2-(dimethylamino)-1-hydroxyethyl)-5-fluoropyridin-4-yl)-4,5-dimethyl-5-(trifluoromethyl)tetrahydrofuran-2-carboxamide]
 | < 10 nM | COc1c([C@H]2[C@H](C(=O)Nc3ccnc(C(O)CF)c3)O[C@@](C)(C(F)(F)F)[C@H]2C)ccc(F)c1F (single isomer, unassigned) [Compound 253, rel-(2R*,3S*,4S*,5R*)-3-(3,4-difluoro-2-methoxyphenyl)-N-(2-(2-fluoro-1-hydroxyethyl)pyridin-4-yl)-4,5-dimethyl-5-(trifluoromethyl)tetrahydrofuran-2-carboxamide]
 | < 10 nM | COCCOc1cc(NC(=O)[C@@H]2O[C@@](C)(C(F)(F)F)[C@@H](C)[C@H]2c2ccc(F)c(F)c2OCCO)ccn1 [Compound 567, (2R,3S,4S,5R)-3-(3,4-difluoro-2-(2-hydroxyethoxy)phenyl)-N-(2-(2-methoxyethoxy)pyridin-4-yl)-4,5-dimethyl-5-(trifluoromethyl)tetrahydrofuran-2-carboxamide]
 | 10 to 100 nM | COc1c([C@H]2[C@H](C(=O)Nc3ccc(-c4ncc[nH]4)nc3)O[C@@](C)(C(F)(F)F)[C@H]2C)ccc(F)c1F [Compound 193, (2R,3S,4S,5R)-N-(6-(1H-imidazol-2-yl)pyridin-3-yl)-3-(3,4-difluoro-2-methoxyphenyl)-4,5-dimethyl-5-(trifluoromethyl)tetrahydrofuran-2-carboxamide]
 | 10 to 100 nM | Cc1nn(C(F)F)cc1NC(=O)[C@@H]1O[C@@](C)(C(F)(F)F)[C@@H](C)[C@H]1c1ccc(F)c(F)c1CN(C)C [Compound 672, (2R,3S,4S,5R)-N-(1-(difluoromethyl)-3-methyl-1H-pyrazol-4-yl)-3-(2-((dimethylamino)methyl)-3,4-difluorophenyl)-4,5-dimethyl-5-(trifluoromethyl)tetrahydrofuran-2-carboxamide]
